In one assay the test system is HCT116. Kind of assay: MTT anti-proliferative assay, HCT116. In kind it is cell-based. To be noted: Homo sapiens, HCT-116, mean ± SD of three independent experiments. How it is done: (§1) Doxorubicin (DOX) was used as a reference drug.
(§2) Cell lines were obtained from ATCC via Holding company for biological products and vaccines (VACSERA), Cairo, Egypt. Doxorubicin (Dox.) is used as a standard anticancer drug. This colorimetric assay is based on the conversion of yellow (MTT) to a purple formazan derivative by mitochondrial succinate dehydrogenase in viable cells. This colorimetric assay was performed according to the reported method[36],[37].
In general terms: Tetrazolium assays rely on reduction of a dye to a coloured formazan, in cell work by metabolically active cells.

For the next assay, the system named is MCF7. The assay is described as follows: MTT anti-proliferative assay, MCF7. In kind it is cell-based. The settings on record: Homo sapiens, mean ± SD of three independent experiments. How it is done:
as §1, §2

The subject of assay [1] is HepG-2 cells. Kind of assay: Cell cycle analysis by PI flow cytometry. It counts as cell-based, human. How it is done:
Cell cycle analysis for compound 5a was performed using the HepG-2 cell lines stained with propidium iodide (PI) and FACSCalibur flow cytometer as mentioned in previous reports.

The subject of assay [2] is HepG-2 cells. The assay is described as follows: Annexin V-FITC/Propidium iodide dual staining apoptosis assay. In kind it is cell-based, human. To be noted: HepG-2, 24 h. How it is done: Liver HepG-2 cancer cells were used in the Annexin V-FITC/Propidium iodide dual staining assay[40] to calculate the percentage of apoptosis induced by compound 5a. As shown in Figs. 6 and Fig. 7, compound 5a induces the early apoptosis in HepG-2 after 24 h incubation by (19.61%) 41.72 folds over the untreated cells (0.47%). Also, it enhances the late apoptotic induction by 11.89% compared to untreated control (0.16%). Cumulatively, compound 5a induced total apoptosis (35.28%) 14.57 folds over the untreated cells (2.42%).
Apoptosis induction for 5a was performed using the HepG-2 cell lines and well-established Annexin 5-FITC/PI detection kit similar to the reported procedures.

For assay [3], the system named is BAX, BCL-2, Cyto c, Casp. 6, 7, 9 and Survivin in HepG-2 cells. The assay is described as follows: RT-PCR gene expression of apoptotic markers. It counts as cell-based, human. The settings on record: HepG-2, control = 1. From the text: The B cell lymphoma-2 (Bcl-2) family of proteins, which includes pro-apoptotic (Bax, Bak, Bid, and Bad) and anti-apoptotic (Bcl-2, Bcl-xL, and Bcl-w) proteins, mediates the mitochondrial or intrinsic apoptosis pathway. These proteins cause apoptosis by influencing the permeability of the mitochondrial membrane, which results in the release of cytochrome c into the cytosol. The Bax/Bcl-2 ratio is frequently employed as a marker of cell death and is essential for controlling mitochondrial cytochrome c release. It is thought that caspases perform critical functions in modulating the mitochondrial pathway. After cytochrome c is released into the cytosol, caspase-9 is triggered. Caspase-9 can activate effector caspases, such as caspase-3, 6 and 7, which cause cells to enter apoptosis. The various target proteins that the effector caspases cleave are widely dispersed throughout the cell, which causes the morphological modifications that are indicative of apoptosis. Apoptosis is inhibited by the anti-apoptotic protein survivin, which regulates the actions of caspase-9 and effector caspases.
Gene expression analysis was performed by using (iScriptTM OneStep RT-PCR Kit with SYBR® Green) from Bio-Rad according to reported procedure.

Assay [4] has as its system HepG-2 cells. Kind of assay: Intracellular ROS accumulation assay (ELISA). In kind it is cell-based, human. From the text: Under both physiological and pathological circumstances, reactive oxygen species (ROS) such H2O2 and superoxides play a significant role in the activation of apoptosis. It's interesting to note that mitochondria both produce and absorb ROS.
Intracellular reactive oxygen species (ROS) were detected by the EIAab ROS ELISA kit according to the reported method.
(ELISA stands for enzyme-linked immunosorbent assay.)

A further assay deals with HER2 (Homo sapiens, UniProt P04626). The assay is described as follows: HER2 inhibition assay.
The target of another assay is HER3 (Homo sapiens, UniProt P21860). The assay is described as follows: HER3 inhibition assay.
For another assay, the target named is HER4 (Homo sapiens, UniProt Q15303). Kind of assay: HER4 inhibition assay.
Another assay addresses EGFR-TK (Homo sapiens, UniProt P00533). The assay is described as follows: EGFR-TK inhibition assay.
For the next assay, the system named is HePG-2. The assay is described as follows: MTT anti-proliferative assay, HepG-2. To be noted: Homo sapiens, HepG2, read-out: IC50 HePG-2.
For the next assay, the system named is WI-38. The assay is described as follows: MTT cytotoxicity against normal fibroblast cells WI-38. To be noted: Homo sapiens, WI-38, read-out: IC50 WI-38.

“And” between values parts separate entries of the source, which are not always exact repeats. Equal entries are not always repeated. “Also recorded” adds a separate entry of the source.

As usually defined, the IC50 is the concentration that inhibits the measured activity by half.

Chain of HER3 (P21860 20-1342): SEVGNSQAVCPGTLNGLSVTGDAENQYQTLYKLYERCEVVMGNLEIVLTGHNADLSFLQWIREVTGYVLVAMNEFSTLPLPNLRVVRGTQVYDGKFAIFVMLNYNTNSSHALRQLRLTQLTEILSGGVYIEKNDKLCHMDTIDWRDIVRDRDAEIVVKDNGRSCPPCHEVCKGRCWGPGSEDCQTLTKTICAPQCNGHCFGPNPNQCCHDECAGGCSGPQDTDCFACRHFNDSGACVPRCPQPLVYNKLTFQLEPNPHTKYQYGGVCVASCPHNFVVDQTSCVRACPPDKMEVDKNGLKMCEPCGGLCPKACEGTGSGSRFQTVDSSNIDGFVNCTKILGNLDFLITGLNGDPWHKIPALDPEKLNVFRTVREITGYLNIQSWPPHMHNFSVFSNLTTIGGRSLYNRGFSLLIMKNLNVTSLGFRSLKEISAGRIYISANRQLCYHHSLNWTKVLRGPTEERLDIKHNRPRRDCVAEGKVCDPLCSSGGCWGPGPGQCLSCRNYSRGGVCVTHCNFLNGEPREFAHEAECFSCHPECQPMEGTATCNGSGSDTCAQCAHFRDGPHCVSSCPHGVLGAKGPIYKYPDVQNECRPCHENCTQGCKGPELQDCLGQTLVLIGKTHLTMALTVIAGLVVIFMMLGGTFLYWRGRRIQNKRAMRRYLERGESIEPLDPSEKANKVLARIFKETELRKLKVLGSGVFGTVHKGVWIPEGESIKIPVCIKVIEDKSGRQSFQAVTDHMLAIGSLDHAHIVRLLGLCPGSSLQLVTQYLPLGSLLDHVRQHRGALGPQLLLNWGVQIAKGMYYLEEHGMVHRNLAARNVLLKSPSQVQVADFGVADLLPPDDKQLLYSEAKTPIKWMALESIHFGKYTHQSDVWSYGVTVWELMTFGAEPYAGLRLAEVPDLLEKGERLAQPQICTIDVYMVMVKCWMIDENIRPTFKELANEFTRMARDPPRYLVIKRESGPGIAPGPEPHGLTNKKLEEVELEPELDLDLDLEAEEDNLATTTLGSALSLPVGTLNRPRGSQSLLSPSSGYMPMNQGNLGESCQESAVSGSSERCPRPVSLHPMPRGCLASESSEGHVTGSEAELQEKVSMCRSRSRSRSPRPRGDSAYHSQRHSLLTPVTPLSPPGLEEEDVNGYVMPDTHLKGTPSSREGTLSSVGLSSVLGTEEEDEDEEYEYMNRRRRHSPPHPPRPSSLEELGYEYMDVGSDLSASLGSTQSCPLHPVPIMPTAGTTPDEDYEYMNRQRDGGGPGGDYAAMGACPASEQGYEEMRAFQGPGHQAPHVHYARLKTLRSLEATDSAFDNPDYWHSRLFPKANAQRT
Chain of EGFR-TK (P00533 25-1210): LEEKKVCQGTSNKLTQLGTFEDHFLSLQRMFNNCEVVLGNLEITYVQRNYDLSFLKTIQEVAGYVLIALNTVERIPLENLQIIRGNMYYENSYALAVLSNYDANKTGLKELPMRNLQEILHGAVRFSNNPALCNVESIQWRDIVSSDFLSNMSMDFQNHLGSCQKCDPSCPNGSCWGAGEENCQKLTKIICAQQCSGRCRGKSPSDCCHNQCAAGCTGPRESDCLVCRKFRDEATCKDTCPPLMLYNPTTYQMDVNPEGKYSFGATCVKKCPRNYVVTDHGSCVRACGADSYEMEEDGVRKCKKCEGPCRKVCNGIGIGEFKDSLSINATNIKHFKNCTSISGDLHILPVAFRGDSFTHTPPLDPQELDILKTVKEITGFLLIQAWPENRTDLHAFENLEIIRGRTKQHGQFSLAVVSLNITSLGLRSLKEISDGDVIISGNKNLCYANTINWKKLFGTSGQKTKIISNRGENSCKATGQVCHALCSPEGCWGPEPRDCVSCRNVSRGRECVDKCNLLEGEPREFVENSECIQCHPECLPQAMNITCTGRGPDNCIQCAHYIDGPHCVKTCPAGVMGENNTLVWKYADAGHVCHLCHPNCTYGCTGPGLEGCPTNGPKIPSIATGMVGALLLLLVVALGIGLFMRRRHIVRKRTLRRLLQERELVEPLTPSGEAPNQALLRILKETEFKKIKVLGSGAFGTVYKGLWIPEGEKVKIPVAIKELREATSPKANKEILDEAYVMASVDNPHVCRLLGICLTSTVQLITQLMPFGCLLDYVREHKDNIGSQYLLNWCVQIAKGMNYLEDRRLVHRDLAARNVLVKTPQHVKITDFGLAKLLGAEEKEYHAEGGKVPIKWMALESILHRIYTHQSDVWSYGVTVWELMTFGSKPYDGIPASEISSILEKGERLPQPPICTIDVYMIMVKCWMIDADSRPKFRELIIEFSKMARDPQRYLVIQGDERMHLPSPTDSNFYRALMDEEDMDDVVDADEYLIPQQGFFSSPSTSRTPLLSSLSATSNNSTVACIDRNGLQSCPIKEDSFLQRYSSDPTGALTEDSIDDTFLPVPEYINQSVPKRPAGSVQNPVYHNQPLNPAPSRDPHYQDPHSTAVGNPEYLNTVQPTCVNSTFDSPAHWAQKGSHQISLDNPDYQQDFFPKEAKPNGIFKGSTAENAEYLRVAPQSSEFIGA
Chain of HER4 (Q15303 26-1308): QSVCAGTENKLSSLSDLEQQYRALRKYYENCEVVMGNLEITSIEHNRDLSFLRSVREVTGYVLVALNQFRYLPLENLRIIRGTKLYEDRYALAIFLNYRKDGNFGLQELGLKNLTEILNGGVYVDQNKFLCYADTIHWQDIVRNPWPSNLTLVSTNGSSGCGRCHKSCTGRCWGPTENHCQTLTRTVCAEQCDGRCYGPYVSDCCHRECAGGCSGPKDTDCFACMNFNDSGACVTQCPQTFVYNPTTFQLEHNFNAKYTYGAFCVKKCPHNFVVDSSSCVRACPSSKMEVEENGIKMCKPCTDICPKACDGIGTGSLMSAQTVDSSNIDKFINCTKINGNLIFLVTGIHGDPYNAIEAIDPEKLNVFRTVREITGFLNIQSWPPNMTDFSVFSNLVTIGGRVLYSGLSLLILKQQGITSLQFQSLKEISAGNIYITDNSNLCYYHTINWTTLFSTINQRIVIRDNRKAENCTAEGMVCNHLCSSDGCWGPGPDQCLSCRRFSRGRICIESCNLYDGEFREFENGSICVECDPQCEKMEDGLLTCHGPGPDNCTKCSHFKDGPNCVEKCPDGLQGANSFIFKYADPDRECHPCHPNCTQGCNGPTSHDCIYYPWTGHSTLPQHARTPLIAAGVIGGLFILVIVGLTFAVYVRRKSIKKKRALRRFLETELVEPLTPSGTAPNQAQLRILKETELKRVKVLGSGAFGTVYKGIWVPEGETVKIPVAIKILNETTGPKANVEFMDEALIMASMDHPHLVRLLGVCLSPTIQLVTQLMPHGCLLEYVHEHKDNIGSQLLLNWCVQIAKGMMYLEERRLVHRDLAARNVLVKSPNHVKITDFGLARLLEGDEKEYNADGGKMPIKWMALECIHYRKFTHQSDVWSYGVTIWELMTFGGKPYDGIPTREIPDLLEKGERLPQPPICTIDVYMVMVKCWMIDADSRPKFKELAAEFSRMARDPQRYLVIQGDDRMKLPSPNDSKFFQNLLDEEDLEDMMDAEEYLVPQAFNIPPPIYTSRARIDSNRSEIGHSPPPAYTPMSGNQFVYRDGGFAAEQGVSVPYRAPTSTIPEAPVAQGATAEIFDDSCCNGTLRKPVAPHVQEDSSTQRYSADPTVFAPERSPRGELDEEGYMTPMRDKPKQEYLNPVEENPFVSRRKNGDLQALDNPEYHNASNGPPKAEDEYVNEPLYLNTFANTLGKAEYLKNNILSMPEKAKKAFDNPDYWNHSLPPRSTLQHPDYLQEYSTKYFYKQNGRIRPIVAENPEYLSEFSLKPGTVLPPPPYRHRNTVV
Chain of HER2 (P04626 23-1255): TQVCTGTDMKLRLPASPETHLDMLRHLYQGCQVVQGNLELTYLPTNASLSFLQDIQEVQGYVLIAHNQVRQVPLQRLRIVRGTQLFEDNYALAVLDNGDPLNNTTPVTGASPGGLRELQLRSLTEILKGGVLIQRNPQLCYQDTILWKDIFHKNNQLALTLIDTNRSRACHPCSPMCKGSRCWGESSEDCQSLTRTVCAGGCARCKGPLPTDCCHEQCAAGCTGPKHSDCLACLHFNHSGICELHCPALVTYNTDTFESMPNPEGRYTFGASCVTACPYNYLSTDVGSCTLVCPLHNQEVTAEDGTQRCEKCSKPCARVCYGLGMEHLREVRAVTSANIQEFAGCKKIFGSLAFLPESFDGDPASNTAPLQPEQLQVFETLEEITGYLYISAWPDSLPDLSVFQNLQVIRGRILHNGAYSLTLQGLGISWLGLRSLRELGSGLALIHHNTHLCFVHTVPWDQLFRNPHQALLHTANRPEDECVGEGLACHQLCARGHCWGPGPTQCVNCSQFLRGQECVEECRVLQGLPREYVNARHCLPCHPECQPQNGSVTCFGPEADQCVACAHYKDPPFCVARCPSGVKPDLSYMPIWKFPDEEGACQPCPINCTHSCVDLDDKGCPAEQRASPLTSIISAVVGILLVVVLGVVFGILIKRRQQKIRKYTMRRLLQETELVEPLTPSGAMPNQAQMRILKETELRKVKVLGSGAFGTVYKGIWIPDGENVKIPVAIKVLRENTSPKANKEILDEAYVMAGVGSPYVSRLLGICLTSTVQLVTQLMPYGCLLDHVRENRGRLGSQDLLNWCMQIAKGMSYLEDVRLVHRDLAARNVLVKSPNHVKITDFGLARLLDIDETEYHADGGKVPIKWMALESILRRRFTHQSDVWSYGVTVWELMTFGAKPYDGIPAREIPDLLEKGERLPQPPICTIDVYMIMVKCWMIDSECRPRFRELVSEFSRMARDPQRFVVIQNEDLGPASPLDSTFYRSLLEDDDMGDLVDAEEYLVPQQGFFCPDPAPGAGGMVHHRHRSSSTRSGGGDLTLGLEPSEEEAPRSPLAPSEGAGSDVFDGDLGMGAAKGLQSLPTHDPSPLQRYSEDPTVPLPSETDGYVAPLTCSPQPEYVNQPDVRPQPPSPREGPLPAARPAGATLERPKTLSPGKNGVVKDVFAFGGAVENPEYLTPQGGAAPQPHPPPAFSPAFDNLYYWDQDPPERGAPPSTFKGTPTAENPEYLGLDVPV

For the molecule `c1ccc(COc2ccc(-c3nnc(SCc4ccccc4)o3)cc2)cc1` [Compound 5a, 2-(4-(Benzyloxy)phenyl)-5-(benzylthio)-1,3,4-oxadiazole], the IC50 with HCT116 worked out at 64.4 ± 3.7 µM; with MCF7, 78.5 ± 4.1 µM; on HER2, 0.72 ± 0.028 µM; at HER3, 0.18 ± 0.006 µM; against HER4, 0.37 ± 0.015 µM; at EGFR-TK, 0.09 µM. The IC50 in the assay with HePG-2 turned out to be 35.6 ± 2.2 µM; in the assay with WI-38, 53.9 ± 3 µM. Further, in the assay with HepG-2 cells [1] (HepG-2, 24 h), the “Comment (cell cycle arrest phase)” value is reported as “arrested the cell cycle on HepG-2 at a G1/S phase; also recorded: cell cycle arrest at G1/S phase; also recorded: cell growth arrest at G1/S”. For the same molecule, in the assay with HepG-2 cells [1] (HepG-2, IC50 concentration, 24 h, untreated control 17.05), the “%G2/M” value was found to be 6.64%. The “%S” value in the assay on HepG-2 cells [1] (HepG-2, IC50 concentration, 24 h, untreated control 37.09) is on record as 41.03%. Further, in the assay with HepG-2 cells [1] (HepG-2, IC50 concentration, 24 h, untreated control 45.86), the “%G0-G1” value is on record as 52.33%. Besides, in the assay with HepG-2 cells [2], the “early apoptosis, folds over the untreated cells” value is reported as 41.72 folds. Also, the “total apoptosis, folds over the untreated cells” value with HepG-2 cells [2] is reported as 14.57 folds. Moreover, the “late apoptosis (Q2)” value in the assay on HepG-2 cells [2] (untreated 0.16%) amounted to 11.89%. The “early apoptosis (Q4)” value with HepG-2 cells [2] (untreated 0.47%) came out at 19.61%. In assay [3], the “RT-PCR Fold Change Bax” value was found to be 4.95 fold. Also, the “RT-PCR Fold Change Casp. 6” value in assay [3] worked out at 6.67 fold. Moreover, in assay [3], the “RT-PCR Fold Change Casp. 7” value was found to be 7.57 fold. Also, the “RT-PCR Fold Change Casp. 9” value in [3] is on record as 4.23 fold. Besides, the “RT-PCR Fold Change Cyto c” value in assay [3] came to 3.82 fold. In the assay with HepG-2 cells [4] (HepG-2, mean ± SD of three experiments, control 105.6 ± 10.8), the ROS is 247.8 pg/mL and 247.8 ± 31.1 pg/mL. Besides, in the assay on HepG-2 cells [4] (HepG-2, versus control = 1), the “ROS Fold” value amounted to 2.34 fold.

These data come from PMC10915170, “New oxadiazole and pyrazoline derivatives as anti-proliferative agents targeting EGFR-TK: design, synthesis, biological evaluation and molecular docking study” (Scientific Reports, 2024).
